The target of assay [1] is T1, DDR1 (Homo sapiens, UniProt Q08345). In words: DDR1 LanthaScreen Europium Kinase Binding assay. To be noted: binding affinity; IC50 converted in Ki using Cheng-Prusoff; read-out: Ki DDR1. Summed up: (§1)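 Binding by TR-FRET tracer displacement: compounds incubated 1 h at room temperature with 5 nM DDR1 plus 20 nM Kinase Tracer 178, or 5 nM DDR2 plus 10 nM tracer, and 2 nM Eu anti-GST antibody in pH 7.5 HEPES/MgCl2/EGTA/BRIJ35 buffer. 665/615 nm ratio gave four-parameter IC50, converted to Ki via Cheng-Prusoff.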
T1 sequence (Q08345 19-913): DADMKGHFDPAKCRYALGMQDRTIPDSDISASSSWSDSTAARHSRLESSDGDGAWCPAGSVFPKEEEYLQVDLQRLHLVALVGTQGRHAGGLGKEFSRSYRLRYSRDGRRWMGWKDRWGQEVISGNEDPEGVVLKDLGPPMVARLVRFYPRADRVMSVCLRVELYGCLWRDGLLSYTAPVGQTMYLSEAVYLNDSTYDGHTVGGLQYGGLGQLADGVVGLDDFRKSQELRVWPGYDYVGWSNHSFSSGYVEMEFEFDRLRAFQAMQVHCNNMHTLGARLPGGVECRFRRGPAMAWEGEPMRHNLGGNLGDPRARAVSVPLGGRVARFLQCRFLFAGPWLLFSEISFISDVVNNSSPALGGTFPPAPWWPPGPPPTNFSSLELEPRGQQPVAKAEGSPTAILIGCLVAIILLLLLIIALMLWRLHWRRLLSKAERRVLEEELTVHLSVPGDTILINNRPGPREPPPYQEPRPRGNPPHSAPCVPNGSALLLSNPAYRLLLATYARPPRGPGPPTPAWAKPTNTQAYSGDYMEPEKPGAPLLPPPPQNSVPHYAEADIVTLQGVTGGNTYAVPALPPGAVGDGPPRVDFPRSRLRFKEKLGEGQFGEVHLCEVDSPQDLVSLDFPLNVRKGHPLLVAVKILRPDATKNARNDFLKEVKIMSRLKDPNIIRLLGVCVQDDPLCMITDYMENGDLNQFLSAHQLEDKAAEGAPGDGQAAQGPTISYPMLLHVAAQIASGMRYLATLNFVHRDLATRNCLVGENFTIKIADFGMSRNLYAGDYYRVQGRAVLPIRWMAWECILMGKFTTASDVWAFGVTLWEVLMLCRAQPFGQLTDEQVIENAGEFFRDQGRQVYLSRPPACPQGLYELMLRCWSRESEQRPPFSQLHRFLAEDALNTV
For orientation: Time-resolved FRET reads energy transfer from a long-lived donor to a nearby acceptor.

Assay [2] deals with T2, DDR2 (Homo sapiens, UniProt Q16832).
T2 sequence (Q16832 22-855): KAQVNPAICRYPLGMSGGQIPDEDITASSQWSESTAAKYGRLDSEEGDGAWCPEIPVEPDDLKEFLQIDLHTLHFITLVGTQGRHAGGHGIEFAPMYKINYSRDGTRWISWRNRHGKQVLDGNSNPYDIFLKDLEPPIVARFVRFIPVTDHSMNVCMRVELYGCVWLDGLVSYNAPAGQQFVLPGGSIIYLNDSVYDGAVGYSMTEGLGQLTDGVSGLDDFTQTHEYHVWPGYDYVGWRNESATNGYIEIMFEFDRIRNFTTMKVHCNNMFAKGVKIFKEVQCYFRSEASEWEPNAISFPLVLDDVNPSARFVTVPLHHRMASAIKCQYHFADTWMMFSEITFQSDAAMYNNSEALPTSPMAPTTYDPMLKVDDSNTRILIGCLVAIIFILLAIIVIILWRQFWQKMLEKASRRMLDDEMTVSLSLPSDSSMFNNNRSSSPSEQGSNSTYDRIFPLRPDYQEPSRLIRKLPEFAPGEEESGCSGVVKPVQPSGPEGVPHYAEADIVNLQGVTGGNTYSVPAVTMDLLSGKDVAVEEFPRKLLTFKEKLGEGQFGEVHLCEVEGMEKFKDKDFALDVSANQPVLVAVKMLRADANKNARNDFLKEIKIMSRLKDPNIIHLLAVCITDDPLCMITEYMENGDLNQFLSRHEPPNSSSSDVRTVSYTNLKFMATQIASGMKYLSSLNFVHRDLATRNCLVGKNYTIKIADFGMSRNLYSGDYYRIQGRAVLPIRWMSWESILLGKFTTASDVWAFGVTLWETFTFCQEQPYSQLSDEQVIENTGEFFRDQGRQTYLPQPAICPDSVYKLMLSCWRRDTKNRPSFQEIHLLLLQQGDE
In words: DDR2 LanthaScreen Europium Kinase Binding assay. The settings on record: binding affinity; IC50 converted in Ki using Cheng-Prusoff; read-out: Ki DDR2. Summed up:
as §1

The target of assay [3] is T1, DDR1. Briefly: DDR1 cell based assay (PathHunter U2OS DDR1, collagen II stimulation). The settings on record: U2OS-DDR1 cells, bovine Type II Collagen stimulation. Summed up:
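U2OS-DDR1 PathHunter cells preincubated 30 min with compound, then stimulated overnight at 37 °C with 20 μg/ml bovine type II collagen. Luminescent complementation signal read after 1 h detection at room temperature; normalized to vehicle (0%) and collagen-only (100%) controls, IC50 from variable-slope sigmoidal fit.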

Assay [4] addresses T2, DDR2. Briefly: DDR2 cell based assay (phospho-ELISA in HEK293T-DDR2 recombinant cells, collagen II stimulation). To be noted: bovine Type II Collagen stimulation. How it is done: The inhibition of DDR2 phosphorylation by compounds was evaluated in HEK293T-DDR2 recombinant cells by phospho-ELISA assay. Briefly, HEK293T-DDR2 cells were seeded in poly-D-lysine-coated 24-well plates at a density of 250.000 cells/well and incubated for 1.5 hours at 37° C. and 5% CO2 in DMEM+10% FBS. After that, the medium was changed to serum-free DMEM and cells were incubated for 3 hours. Then. test compounds were added at different concentrations 30 minutes before stimulation with bovine Type II Collagen at 50 μg/ml for further 3 hours. For DDR2 phospho-ELISA assay (DuoSet IC Human Phospho-DDR2; R&D Systems), protein extracts were obtained by adding 60 μl/well of lysis buffer prepared according to the manufacturer's instructions. Protein concentration in the samples was determined by BCA assay and the levels of phospho-DDR2 were determined following R&D Systems indications. Raw data were normalized to maximal inhibition control (0% for normalization) and positive control (100% for normalization; cells treated with […] collagen II) and IC50 parameters were calculated in GraphPad Prism 8.0 software, using sigmoidal dose-response curve fitting with variable slope.

Some results are limits rather than exact numbers.

For orientation: Ki means the dissociation constant of the complex between target and ligand, obtained from inhibition or displacement. By IC50 is commonly meant the point on the concentration scale where inhibition reaches its midpoint. Turning to `O=C(Nc1cc(F)cc(C(F)(F)F)c1)c1ccc2c(c1)N(Cc1cnc3[nH]ncc3c1)CC2` [Example 39, 1-((1H-pyrazolo[3,4-b]pyridin-5-yl)methyl)-N-(3-fluoro-5-(trifluoromethyl)phenyl)indoline-6-carboxamide], the Ki is 25 to 50 nM at DDR1 [1] and less than 25 nM on DDR2 [2]. In addition, the IC50 against DDR1 [3] is less than 25 nM; at DDR2 [4], 25 to 50 nM.
Take `O=C(Nc1cc(F)cc(C(F)(F)F)c1)c1ccc2c(c1)N(Cc1cnc3ccccn13)CC2` [Example 59, N-(3-fluoro-5-(trifluoromethyl)phenyl)-1-(imidazo[1,2-a]pyridin-3-ylmethyl)indoline-6-carboxamide]: the Ki on DDR1 [1] and at DDR2 [2] was less than 25 nM each time. Also, the IC50 was less than 25 nM on DDR1 [3] and 50 to 80 nM on DDR2 [4].
Take `Cc1n[nH]c2ncc(CN3CCc4ccc(C(=O)Nc5ccc(CN6CCN(C)CC6)c(C(F)(F)F)c5)cc43)cc12` [Example 65, 1-((3-methyl-1H-pyrazolo[3,4-b]pyridin-5-yl)methyl)-N-(4-((4-methylpiperazin-1-yl)methyl)-3-(trifluoromethyl)phenyl)indoline-6-carboxamide]: the Ki on DDR1 [1] and on DDR2 [2] was less than 25 nM throughout. Also, the figures for the IC50 at DDR1 [3] and at DDR2 [4] were less than 25 nM and 50 to 80 nM, respectively.
`Cc1n[nH]c2ncc(CN3CCc4ccc(C(=O)Nc5ccc(CN(C)C)c(C(F)(F)F)c5)cc43)cc12` [Example 69, N-(4-((dimethylamino)methyl)-3-(trifluoromethyl)phenyl)-1-((3-methyl-1H-pyrazolo[3,4-b]pyridin-5-yl)methyl)indoline-6-carboxamide]: the Ki at DDR1 [1] and on DDR2 [2] was less than 25 nM each time. For the same compound, the IC50 against DDR1 [3] and on DDR2 [4] was less than 25 nM each time.
Regarding `CN1CCN(Cc2ccc(NC(=O)c3ccc4c(c3)N(Cc3cnc5[nH]ncc5c3)CC4)cc2C(F)(F)F)CC1` [Example 75], the inhibition constant Ki at DDR1 [1] and at DDR2 [2] was less than 25 nM each time. Besides, the IC50 against DDR1 [3] and on DDR2 [4] was less than 25 nM each time.
Regarding `Cc1n[nH]c2ncc(CN3CCc4ccc(C(=O)Nc5cc(C(C)(C)C)no5)cc43)cc12` [Example 80, N-(3-(tert-butyl)isoxazol-5-yl)-1-((3-methyl-1H-pyrazolo[3,4-b]pyridin-5-yl)methyl)indoline-6-carboxamide], the Ki at DDR1 [1] and on DDR2 [2] was less than 25 nM throughout. The IC50 on DDR1 [3] and on DDR2 [4] was less than 25 nM each time.
As for `CN1CCN(Cc2ccc(NC(=O)c3ccc4c(c3)N(Cc3cnc5[nH]nc(N6CCOCC6)c5c3)CC4)cc2C(F)(F)F)CC1` [Example 89, N-[4-[(4-methylpiperazin-1-yl)methyl]-3-(trifluoromethyl)phenyl]-1-[(3-morpholino-1H-pyrazolo[3,4-b]pyridin-5-yl)methyl]indoline-6-carboxamide], the Ki on DDR1 [1] and at DDR2 [2] was less than 25 nM throughout. Besides, the IC50 on DDR1 [3] was less than 25 nM; on DDR2 [4] it was 50 to 80 nM.

Values taken from US20240217967A1, “INDOLINE DERIVATIVES AS DDRS INHIBITORS” (CHIESI FARMACEUTICI S.P.A., priority 2021, published 2024).
